# According to patent US7531194B2, “Plant extracts for the treatment of rheumatoid arthritis” (Development Center for Biotechnology, priority 2006, dated 2009):
# Key:
# Assay type in all cases: in vivo, Lewis rats
# CIA rats [1] = experiment: Maximum arthritic index (MAI) of CIA rats fed PA extracts (Embodiment 4)
# Procedure: After immunization, the rats were observed three times a week. The changes of redness and swelling or the like in limbs were recorded, and photographs were taken and filed for comparison. The scoring of the examinations was based on 5 grades as follows:
# Maximum arthritic index, average MAI for each group was calculated as follows: Average MAI=Total of MAI recorded in limbs of each rat (0: no CIA occurs, 16: highest score)/4/total rat number of each group
# (§1) In the present animal test, the test animals and apparatus used are the same as those disclosed in embodiment 2.
# (§2) The animal test scheme is shown as FIG. 11. Bovine collagen type II was dissolved in 0.1 M acetic acid solution, stirred to dissolve thoroughly, and formulated into solutions of concentrations of 1.5 and 3 mg/ml, which were stored at 4° C. for later use. For the first immune injection, 100 μl of C II solution was emulsified with an equal amount of CFA, and injected subcutaneously (200 μl/rat) in the root portions of tails of the rats after the emulsification was complete. […] After about 15 days, the second immunization was done. 100 μl of C II solution was emulsified with an equal amount of IFA, and injected subcutaneously (200 μl/rat) in the root portions of tails of the rats after the emulsification was complete. Approximately from Day 18, the symptoms of arthritis were observed (CIA rats), and PA and CBX were fed from Day 19 until Day 38.
# CIA rats [2] = experiment: Joint swelling degree (toe thickness) of CIA rats fed PA extracts (Embodiment 4)
# Procedure: The thickness changes of soles of rats were measured by a Vernier Caliper (twice per week), and there were eight measurement sites in total in each rat, including one site at the center of each sole of the two front feet respectively, and three sites in each of the two back feet (ankle joint, sole, and root portion of toe) respectively.
# as §1, §2
# Rheumatoid factor (RF) = experiment: Serum RF of CIA rats fed PA extracts (Embodiment 4)
# Procedure: 1. Collagen was formulated in a coating buffer to a concentration of 40 μg/ml, 0.1 ml of which was added into a 96-well micro plate respectively, and was kept in 4° C. overnight.
# 2. After washing with Tris buffer three times, 0.2 ml of blocking buffer containing 1% BSA was added into each well. The reaction lasted for 2 hours at room temperature, and then was washed by Tris buffer three times again.
# 3. After the serum sample was diluted appropriately with Tris buffer containing 0.05% Tween 20 ( 1/20 or 1/40), 0.1 ml serum sample was added into each well of the 96-well micro plate. The reaction lasted for 2 hours at room temperature, and then was washed by Tris buffer three times again.
# 4. Coated anti-rat immunoglobulin M (IgM) was combined with horseradish […] (HRP), appropriately diluted ( 1/12000), and then added into the 96-well micro plate. The reaction lasted 2 hours at room temperature, and then was washed by Tris buffer three times again.
# 5. 0.1 ml of tetramethyl benzidine (TMB) was directly added into each well for color reaction, and then a stopping solution was added to stop the reaction. Finally, absorption (O.D) value was read out at the wavelength of 450 nm.
# as §1, §2
# IL-6 = experiment: PEC cytokine IL-6, CIA rats fed PA extracts (Embodiment 4); settings: PEC of CIA rats, gavage Day 19-38; doses as in the 4th table
# Procedure: (§3) 1. After carbon dioxide euthanasia, the outer furs of the rat abdominal cavity were cut out by scissors, to expose the whole abdominal cavity.
# (§4) 2. HBSS buffer was injected into the abdominal cavity batch-wise by a 10 ml syringe to make a total volume of about 20 ml/rat.
# (§5) 3. The abdominal cavity of the rat was opened after the abdomen was gently kneaded. An incision of about 2 cm was made in the abdominal cavity by using scissors. Peritoneal exudation cell (PEC) liquid (about 10 to 15 ml of cellular fluid could be collected) was drawn with a syringe, and placed into a 50 ml centrifuge tube.
# (§6) 4. The supernatant was removed after the liquid was centrifuged at 1500 rpm for 5 minutes. 10 ml of HBSS buffer was added to wash, and then centrifuged, after which the supernatant was removed.
# (§7) 5. The cell concentration was adjusted to 2×10^6 cells/ml with a fresh culture medium (containing antibiotics).
# (§8) 6. The cell suspension was divided into a 48-well plate at 0.5 ml/well.
# (§9) 7. An additional. 0.5 ml of lipopolysaccharides (LPS) (20 μg/ml) was added separately, making a final concentration of 10 μg/ml.
# (§10) 8. Finally, it was placed into a 37° C. incubator for 24 hours. The supernatant was collected, and stored in −20° C. The concentrations of cytokine TNF-α, IL-6, and IL-1β were analyzed by using ELISA kit.
# In the present animal test, the test animals and apparatus used are the same as those disclosed in embodiment 2. […]
# IL-1β = experiment: PEC cytokine IL-1β, CIA rats fed PA extracts (Embodiment 4)
# Procedure: as §3, §4, §5, §6, §7, §8, §9, §10, §1
# The animal test scheme is shown as FIG. 11. Bovine collagen type II was dissolved in 0.1 M acetic acid solution, stirred to dissolve thoroughly, and formulated into solutions of concentrations of 1.5 and 3 mg/ml, which were stored at 4° C. for later use. For the first immune injection, 100 μl of C II solution was emulsified with an equal amount of CFA, and injected subcutaneously (200 μl/rat) in the root portions of tails of the rats after the emulsification was complete. […] After about 15 days, the second immunization was done. […]
# [3] = gavage Day 19-38, doses as in the 4th table
# [4] = PEC of CIA rats, gavage Day 19-38, doses as in the 4th table
structure (smiles),measurement,setting,value
"Cc1ccc(-c2cc(C(F)(F)F)nn2-c2ccc(S(N)(=O)=O)cc2)cc1 [CBX, Ceelebrex]","MAI, inhibitory effect",CIA rats [1]; [3],(40%)
same,"MAI, inhibitory effect (grade)",CIA rats [1]; [3],++ (“++” represents 25 to 50% of inhibitory effect)
same,effect on the arthritic indices (MAI) of CIA rats,"CIA rats [1]; gavage Day 19 until Day 38, FIG. 13",most preferred
same,"Toe thickness, inhibitory effect (grade)","CIA rats [2]; gavage Day 19-38, CBX 18, PA-EtOH 40.5, PA-F1 3.0, PA-F2 1.13, PA-F3 11.3, PA-F4 11.3 mg/kg/day",++ (“++” represents 25 to 50% of inhibitory effect)
same,"Toe thickness, inhibitory effect",CIA rats [2]; [3],(49%)
same,reduction of serum RF value,"Rheumatoid factor (RF); Day 30 compared to Day 18, FIG. 15",about 52%
same,reduction of serum RF value,"Rheumatoid factor (RF); Day 37 compared to Day 18, FIG. 15",about 66%
same,"RF, inhibitory effect",Rheumatoid factor (RF); [3],(43%)
same,"RF, inhibitory effect (grade)",Rheumatoid factor (RF); [3],++ (“++” represents 25 to 50% of inhibitory effect)
same,"IL-6, inhibitory effect",IL-6,(36%)
same,"IL-6, inhibitory effect (grade)",IL-6,++ (“++” represents 25 to 50% of inhibitory effect)
same,"IL-1β, inhibitory effect",IL-1β; [4],(38%)
same,"IL-1β, inhibitory effect (grade)",IL-1β; [4],++ (“++” represents 25 to 50% of inhibitory effect)
same,inhibition of PEC secreting IL-1β,"IL-1β; PEC of fed CIA rats, FIG. 17",significantly inhibits
